Results: the supplement of paper PMC7840683
Counter-ions that a name gives are not always drawn. ± gives the standard deviation of the averaged measurements.

Tested on: HepaRG
Test: LDH release cytotoxicity, % of total lysis control; higher = more cytotoxic
Conditions: 48 h
Summary of the method: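 Single-lot HepaRG cells on collagen I-coated 96-well plates were exposed for 48 h in duplicate, in serum-free induction medium with 0.5% DMSO, to eight-point half-log series (test chemicals top 100 µM). Total lysis wells received 0.1% Triton X, and LDH leakage into 50 µL spent medium was read as resorufin fluorescence (CytoTox-ONE, Tecan Safire). Percent cytotoxicity was normalized to on-plate vehicle and total lysis controls and averaged over the duplicates.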

O=C1NS(=O)(=O)c2ccccc21 [Sodium saccharin hydrate]
Conditions	LDH release cytotoxicity [%]
0.03162 µM	-0.893 ± 0.069
0.1 µM	-1.1 ± 0.76
0.3162278 µM	-0.541 ± 0.034
1 µM	-1.22 ± 0.43
3.16228 µM	-1.77 ± 0.0062
10 µM	-0.645 ± 0.66
31.6228 µM	-0.345 ± 0.15
100 µM	1.33 ± 0.048

O=C(O)C(Cl)(Cl)Cl [Sodium trichloroacetate]
Conditions	LDH release cytotoxicity [%]
0.03162 µM	-0.75 ± 0.63
0.1 µM	-0.518 ± 0.088
0.3162278 µM	-1.06 ± 0.36
1 µM	-0.987 ± 0.68
3.16228 µM	-1.23 ± 1.3
10 µM	-0.588 ± 0.51
31.6228 µM	0.00119 ± 0.52
100 µM	0.935 ± 0.7

Cc1ccc(S(=O)(=O)O)cc1C [Sodium xylenesulfonate]
Conditions	LDH release cytotoxicity [%]
0.03162 µM	-0.646 ± 0.56
0.1 µM	-1.44 ± 0.33
0.3162278 µM	-1.14 ± 1.1
1 µM	-1.21 ± 0.25
3.16228 µM	-1.1 ± 0.39
10 µM	-1.23 ± 0.36
31.6228 µM	-1.25 ± 0.27
100 µM	1.23 ± 0.65

CCCCCCCCC=CCCCCCCCC(=O)OCC(O)C1OCC(O)C1O (centres undefined) [Sorbitan, mono-(9Z)-9-octadecenoate]
Conditions	LDH release cytotoxicity [%]
0.03162 µM	-0.746 ± 0.21
0.1 µM	-0.105 ± 0.41
0.3162278 µM	-1.38 ± 0.83
1 µM	-1.65 ± 0.91
3.16228 µM	-1.48 ± 1
10 µM	-1.08 ± 0.14
31.6228 µM	-0.835 ± 0.26
100 µM	-0.317 ± 0.22

CCC(C)(C)C(=O)OC1=C(c2ccc(Cl)cc2Cl)C(=O)OC12CCCCC2 [Spirodiclofen]
Conditions	LDH release cytotoxicity [%]
0.03162 µM	-0.904 ± 0.1
0.1 µM	-1.21 ± 1.1
0.3162278 µM	-0.287 ± 0.5
1 µM	-1.32 ± 0.39
3.16228 µM	-1.74 ± 0.89
10 µM	0.0779 ± 0.41
31.6228 µM	-1.05 ± 0.14
100 µM	0.552 ± 0.59

CC(=O)SC1CC2=CC(=O)CCC2(C)C2CCC3(C)C(CCC34CCC(=O)O4)C12 (centres undefined) [Spironolactone]
Conditions	LDH release cytotoxicity [%]
0.03162 µM	0.148 ± 1
0.1 µM	-0.279 ± 0.079
0.3162278 µM	-1.43 ± 0.44
1 µM	-1.93 ± 0.13
3.16228 µM	-1.42 ± 0.35
10 µM	-1.46 ± 0.3
31.6228 µM	-0.441 ± 0.098
100 µM	13.5 ± 1.6

CCCN(CC)CC1COC2(CCC(C(C)(C)C)CC2)O1 (centres undefined) [Spiroxamine]
Conditions	LDH release cytotoxicity [%]
0.03162 µM	-0.782 ± 0.87
0.1 µM	-1.02 ± 0.35
0.3162278 µM	0.233 ± 0.6
1 µM	-0.292 ± 0.15
3.16228 µM	0.829 ± 0.38
10 µM	0.738 ± 0.62
31.6228 µM	1.08 ± 0.99
100 µM	1.62 ± 0.76

Cc1cn(C2C=CC(CO)O2)c(=O)[nH]c1=O (centres undefined) [Stavudine]
Conditions	LDH release cytotoxicity [%]
0.03162 µM	-0.726 ± 0.35
0.1 µM	-0.277 ± 0.41
0.3162278 µM	0.0542 ± 0.56
1 µM	0.024 ± 0.42
3.16228 µM	-0.127 ± 0.0047
10 µM	0.3 ± 1.1
31.6228 µM	0.433 ± 0.49
100 µM	2.36 ± 0.35

c1ccc(C2CO2)cc1 (centres undefined) [Styrene oxide]
Conditions	LDH release cytotoxicity [%]
0.03162 µM	-1.36 ± 0.96
0.1 µM	-1.15 ± 0.44
0.3162278 µM	-1.2 ± 0.66
1 µM	-1.64 ± 0.41
3.16228 µM	-1.36 ± 0.55
10 µM	-0.823 ± 1.1
31.6228 µM	-0.175 ± 0.79
100 µM	0.415 ± 0.9

CC(=O)OCC1OC(OC2(COC(C)=O)OC(COC(C)=O)C(OC(C)=O)C2OC(C)=O)C(OC(C)=O)C(OC(C)=O)C1OC(C)=O (centres undefined) [Sucrose octaacetate]
Conditions	LDH release cytotoxicity [%]
0.0238752 µM	-0.662 ± 1.5
0.0755 µM	-0.298 ± 1.5
0.238752 µM	-0.188 ± 0.8
0.755 µM	-1.45 ± 0.2
2.38752 µM	-0.463 ± 0.58
7.55 µM	-0.261 ± 0.3
23.8752 µM	-0.0769 ± 0.54
75.5 µM	1.89 ± 0.36

OCC1OC(OC2(CO)OC(CO)C(O)C2O)C(O)C(O)C1O (centres undefined) [Sucrose]
Conditions	LDH release cytotoxicity [%]
0.03162 µM	-1.56 ± 0.45
0.1 µM	-2.84 ± 0.18
0.3162278 µM	-1.3 ± 0.074
1 µM	-1.84 ± 0.36
3.16228 µM	-2 ± 1.1
10 µM	-0.48 ± 1.6
31.6228 µM	-0.542 ± 1.9
100 µM	1.54 ± 1.6

O=C(O)c1cc(N=Nc2ccc(S(=O)(=O)Nc3ccccn3)cc2)ccc1O [Sulfasalazine]
Conditions	LDH release cytotoxicity [%]
0.03162 µM	-0.789 ± 0.12
0.1 µM	-1.61 ± 0.69
0.3162278 µM	-0.498 ± 0.038
1 µM	-0.487 ± 0.14
3.16228 µM	-0.767 ± 0.31
10 µM	0.367 ± 0.64
31.6228 µM	0.113 ± 1.2
100 µM	1.04 ± 1.2

Cc1nn(-c2cc(NS(C)(=O)=O)c(Cl)cc2Cl)c(=O)n1C(F)F [Sulfentrazone]
Conditions	LDH release cytotoxicity [%]
0.03162 µM	-1.66 ± 0.5
0.1 µM	-1.99 ± 0.051
0.3162278 µM	-2.52 ± 0.25
1 µM	-2.37 ± 0.49
3.16228 µM	-0.982 ± 0.51
10 µM	-1.17 ± 0.24
31.6228 µM	-1.23 ± 0.51
100 µM	0.713 ± 0.36

CCc1c(C(=O)NN2CCCCC2)nn(-c2ccc(Cl)cc2Cl)c1-c1ccc(Br)cc1 [Surinabant]
Conditions	LDH release cytotoxicity [%]
0.03162 µM	-0.47 ± 0.5
0.1 µM	-0.954 ± 0.83
0.3162278 µM	-1.13 ± 1.6
1 µM	-1.44 ± 0.058
3.16228 µM	-0.402 ± 0.14
10 µM	2.16 ± 0.28
31.6228 µM	15.8 ± 2.2
100 µM	77.6 ± 2.6

O=c1n(Cl)c(=O)n(Cl)c(=O)n1Cl [Symclosene]
Conditions	LDH release cytotoxicity [%]
0.03162 µM	-1.22 ± 0.62
0.1 µM	-0.82 ± 0.92
0.3162278 µM	-0.254 ± 0.19
1 µM	-0.453 ± 0.22
3.16228 µM	0.284 ± 0.16
10 µM	1.48 ± 1.4
31.6228 µM	0.324 ± 1.8
100 µM	2.44 ± 2

CCC(=C(c1ccccc1)c1ccc(OCCN(C)C)cc1)c1ccccc1 [Tamoxifen citrate]
Conditions	LDH release cytotoxicity [%]
0.02893 µM	-0.702 ± 0.89
0.0915 µM	-0.863 ± 0.61
0.289348 µM	-1.43 ± 0.082
0.915 µM	-1.01 ± 0.67
2.89348 µM	0.0489 ± 0.65
9.15 µM	0.563 ± 0.037
28.9348 µM	9.57 ± 0.34
91.5 µM	88.7 ± 7.3

CCC(=C(c1ccccc1)c1ccc(OCCN(C)C)cc1)c1ccccc1 [Tamoxifen]
Conditions	LDH release cytotoxicity [%]
0.03162 µM	-1.09 ± 0.46
0.1 µM	-0.968 ± 0.65
0.3162278 µM	-1.82 ± 0.89
1 µM	-2.26 ± 0.5
3.16228 µM	-0.69 ± 0.34
10 µM	-0.919 ± 0.7
31.6228 µM	4.6 ± 0.9
100 µM	79.7 ± 1.2

O=C(OC[C@H]1O[C@@H](OC(=O)c2cc(O)c(O)c(OC(=O)c3cc(O)c(O)c(O)c3)c2)[C@H](OC(=O)c2cc(O)c(O)c(OC(=O)c3cc(O)c(O)c(O)c3)c2)[C@@H](OC(=O)c2cc(O)c(O)c(OC(=O)c3cc(O)c(O)c(O)c3)c2)[C@@H]1OC(=O)c1cc(O)c(O)c(OC(=O)c2cc(O)c(O)c(O)c2)c1)c1cc(O)c(O)c(OC(=O)c2cc(O)c(O)c(O)c2)c1 [Tannic acid]
Conditions	LDH release cytotoxicity [%]
0.0096449 µM	-1.06 ± 2.3
0.0305 µM	-1.19 ± 0.16
0.0964495 µM	-2.39 ± 0.56
0.305 µM	-2.34 ± 0.6
0.964495 µM	-3.92 ± 0.22
3.05 µM	-4.5 ± 0.39
9.64495 µM	-0.0405 ± 0.038
30.5 µM	5.317 ± 0.018
